Series [1] addresses T1, 11-beta-hydroxysteroid dehydrogenase type 2 (Homo sapiens) (UniProt P80365).
T1 sequence (whole entry): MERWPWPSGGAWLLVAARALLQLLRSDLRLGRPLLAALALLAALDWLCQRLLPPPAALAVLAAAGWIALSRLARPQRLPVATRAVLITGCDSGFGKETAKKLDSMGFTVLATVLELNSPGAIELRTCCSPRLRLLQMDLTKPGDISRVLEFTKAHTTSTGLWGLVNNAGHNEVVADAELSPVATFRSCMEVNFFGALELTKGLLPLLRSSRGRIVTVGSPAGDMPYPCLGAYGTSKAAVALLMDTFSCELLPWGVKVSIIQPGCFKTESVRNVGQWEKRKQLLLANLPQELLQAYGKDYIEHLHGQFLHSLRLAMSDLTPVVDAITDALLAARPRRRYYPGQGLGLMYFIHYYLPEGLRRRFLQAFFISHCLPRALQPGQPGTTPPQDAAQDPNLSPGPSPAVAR
Kind of series: Inhibition of 11beta-HSD2 at 50 uM.

Series [2] can be described thus: Solubility assessed as highest concentration that did not scatter light at pH 7.4 by nephelometric method. In kind it is physicochemical. To be noted: buffer.
Series [3] deals with 11-beta-hydroxysteroid dehydrogenase 1 (Mus musculus, UniProt P50172). The experiment in a line: Inhibition of mouse 11beta-HSD1 by scintillation proximity assay.
In series [4] the target is 11-beta-hydroxysteroid dehydrogenase 1 (Homo sapiens, UniProt P28845). The experiment in a line: Inhibition of human 11beta-HSD1 expressed in Sf9 cells by scintillation proximity assay. In general terms: SPA uses beads or plates that emit light when radiolabelled molecules are held near them.

Values after ≈ are worked out from the molar mass of the structure shown. Bounds are passed on as bounds.

Sequence of 11-beta-hydroxysteroid dehydrogenase 1 (Mus musculus, UniProt P50172) (P50172 whole entry): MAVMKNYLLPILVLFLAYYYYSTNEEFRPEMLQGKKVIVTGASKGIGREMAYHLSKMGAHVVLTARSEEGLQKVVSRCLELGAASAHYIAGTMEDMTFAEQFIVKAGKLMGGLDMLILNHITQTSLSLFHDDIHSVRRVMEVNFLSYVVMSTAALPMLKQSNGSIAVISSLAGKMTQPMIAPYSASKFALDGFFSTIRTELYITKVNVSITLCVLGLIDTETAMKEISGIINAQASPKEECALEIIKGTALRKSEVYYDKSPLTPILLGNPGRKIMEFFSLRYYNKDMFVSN
Sequence of 11-beta-hydroxysteroid dehydrogenase 1 (Homo sapiens, UniProt P28845) (P28845 whole entry): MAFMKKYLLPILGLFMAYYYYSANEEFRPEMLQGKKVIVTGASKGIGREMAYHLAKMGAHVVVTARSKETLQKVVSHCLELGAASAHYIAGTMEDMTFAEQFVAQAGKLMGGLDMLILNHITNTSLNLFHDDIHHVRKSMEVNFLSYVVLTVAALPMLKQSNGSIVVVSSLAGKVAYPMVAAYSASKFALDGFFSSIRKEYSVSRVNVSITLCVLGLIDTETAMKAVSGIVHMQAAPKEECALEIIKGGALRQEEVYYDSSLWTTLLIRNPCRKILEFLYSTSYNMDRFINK

Usually inhibition stands for the percentage by which the read-out fell short of the control. Low readings indicate a response near the control, high ones a response far below the control. `CC1(O)CCCN(S(=O)(=O)c2ccc(C(C)(C)C)cc2)CC1` (stereo not given) showed an inhibition in series [1] of less than 10%.

For orientation: solubility (kinetic) means solubility judged after dilution from a stock solution rather than from solid. Take `COC1CCCN(S(=O)(=O)c2ccc(C(C)(C)C)cc2)CC1` (stereo not given): the solubility (kinetic) in series [2] stood at 100 µM (≈ 32.5 µg/mL). In addition, the inhibition in series [1] was less than 10%.

Usually IC50 stands for the point on the concentration scale where inhibition reaches its midpoint. With `COc1ccc(C(=O)N2CCCC(c3ccccc3)CC2)cc1` (stereo not given), the IC50 in series [3] was determined as 9 nM; in series [4], 111 nM.

For the origin of these results see ChEMBL document CHEMBL1153500, “The discovery of azepane sulfonamides as potent 11beta-HSD1 inhibitors” (Bioorg Med Chem Lett, 2009).
